“Also recorded” adds a separate entry of the source. Like-named read-outs stand apart in the source and are kept apart here.
What was measured:
CaBdf1 BD2 [1] = biological target: T1, CaBdf1 BD2 (Candida albicans, UniProt Q5A4W8); assay type: binding; set-up: made in house; host or cells: E. coli BL21(DE3); conditions: CaBdf1 BD2 WT; for Peptide array signal, raw data, Left: left replicate array; for Peptide array signal, raw data, Rigt: right replicate array
Procedure: (§1) In short, arrays were blocked and incubated with 1 μM of purified CaBdf1 BD1 or BD2. Arrays were incubated with recombinant BDs for 2 h at 4 °C in binding buffer (Tris-HCl 50 mM pH 7.4, NP-40 0.1%, NaCl 150 mM, glycerol 10%). […] Assays were performed in duplicate.
Target sequence in this assay (Q5A4W8 361-501): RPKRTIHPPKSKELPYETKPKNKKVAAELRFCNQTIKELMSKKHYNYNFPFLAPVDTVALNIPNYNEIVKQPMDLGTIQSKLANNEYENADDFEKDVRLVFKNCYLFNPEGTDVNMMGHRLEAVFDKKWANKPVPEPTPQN

[2] = system: 32 representative human (BET and non-BET) BDs; experiment: BROMOscan profiling (DiscoverX); assay type: binding; conditions: 10 μM; 35% of control used as cutoff for significant inhibition
Procedure: (§2) BROMOscan profiling was performed by DiscoverX (Fremont, CA, USA). […] Ligand-loading densities were optimized as described.

SMARCA2 BD [3] = biological target: T2, SMARCA2 BD (Homo sapiens, UniProt P51531); experiment: BROMOscan profiling (DiscoverX); assay type: binding; conditions: as read by reviewer from the BROMOscan data
T2 construct: Human SMARCA2 and SMARCA4 BD plasmids bearing an N-terminal His tag and TEV protease site; His tag with TEV site (N, cleaved yes); 73250; host or cells: E. coli BL21(DE3)
Procedure: as §2

CaBdf1 BD2 [4] = biological target: T1, CaBdf1 BD2; experiment: HTRF assay, inhibition of BD binding to H4ac4 peptide; set-up: made in house; host or cells: E. coli BL21(DE3)
Target sequence in this assay (Q5A4W8 361-501): as above

CaBdf1 BD1 [5] = biological target: T3, CaBdf1 BD1 (Candida albicans, UniProt Q5A4W8); assay type: binding; conditions: CaBdf1 BD1 WT; for Peptide array signal, raw data, Left: left replicate array; for Peptide array signal, raw data, Rigt: right replicate array
T3 construct: made in house; host or cells: E. coli BL21(DE3)
Procedure: as §1

CaBdf1 BD1 [6] = biological target: T3, CaBdf1 BD1; experiment: Isothermal titration calorimetry (ITC); assay type: binding
Procedure: (§3) Proteins used for crystallization and for ITC. […] Cells were resuspended in buffer A (50 mM Tris-HCl pH 7.5, 300 mM NaCl, 10% glycerol, 25 mM imidazole, 5 mM β-mercaptoethanol and protease inhibitors) and lysed by sonication. The cleared lysate was incubated with Ni-NTA resin (Qiagen) and washed with buffer A containing 0.5 M NaCl. Proteins were eluted with 250 mM imidazole, dialysed overnight in the presence of His-tagged TEV protease against buffer A containing no imidazole and incubated with Ni-NTA resin to remove His-tagged species. Proteins were further purified on a Superdex 75 10/300 (GE Healthcare) column in 50 mM Hepes pH 7.5, 150 mM NaCl, 0.5 mM dithiothreitol (DTT). Proteins were concentrated to >20 mg ml^−1 on a Centricon device (Millipore) and used for ITC, TSA and crystallization experiments. […] Expression and purification were performed as above, except that buffer A was replaced by buffer B (50 mM Hepes pH 7.5, 500 mM NaCl, 5% glycerol, 5 mM imidazole and protease inhibitors) and gel filtration was performed in 10 mM Hepes pH 7.5, 500 mM NaCl and 5% glycerol.
(§4) Calorimetric experiments were performed on a NanoITC calorimeter (TA Instruments) at 25 °C while stirring at 250 r.p.m. All proteins were buffer exchanged by gel filtration into 50 mM Hepes pH 7.5, 150 mM NaCl, 0.5 mM DTT, except for SMARCA2 and SMARCA4A BDs, which were exchanged into 10 mM Hepes pH 7.5, 500 mM NaCl and 5% glycerol. […] Titrations consisted of an initial injection of 1.5 μl followed by 19 identical injections of 2.5 μl made at time intervals of 5 min. ITC data were corrected for the heat of dilution of injectant into buffer and analysed with software provided by the manufacturer using a single binding site model. The first data point was excluded from the analysis. Thermodynamic parameters determined from the ITC data are summarized in Supplementary Table 1.

SMARCA2 BD [7] = biological target: T2, SMARCA2 BD; experiment: Isothermal titration calorimetry (ITC); assay type: binding
Procedure: as §3, §4

SMARCA4 BD = biological target: T4, SMARCA4 BD (Homo sapiens, UniProt P51532); experiment: Isothermal titration calorimetry (ITC); assay type: binding
T4 construct: Human SMARCA2 and SMARCA4 BD plasmids bearing an N-terminal His tag and TEV protease site; His tag with TEV site (N, cleaved yes); 74664; host or cells: E. coli BL21(DE3)
Procedure: as §3, §4

C. albicans = C. albicans growth assay in liquid media; assay type: cell-based; conditions: for antifungal activity against mutant strains in which either BD1 or BD2 was inactivated (in words): liquid media, WT allele repressed
Procedure: Growth on liquid media. C. albicans strains were grown at 30 °C in SC medium to an OD600 of 0.5–0.8. For the evaluation of growth defects related to Bdf1 mutations, log-phase growing cells were counted using a Neubauer chamber and diluted in liquid media to a final concentration of 5,400 cells per ml per well in a sterile 96-well plate. Dox (50 μg ml^−1) or methionine (5 mM)/cysteine (0.25 mM) were added to the media if required. Plates were incubated at 30 °C and OD600 was measured using a Multiskan FC Microplate Photometer (Thermo Fisher). For the evaluation of chemical compounds, strains were grown in SC medium supplemented with 50 μg ml^−1 Dox or 5 mM methionine/0.25 mM cysteine 24 h before counting and then seeded in 96-well plates at the same concentration as mentioned above, with or without chemical compounds. Statistical tests were performed using two-sided Welch t-tests.

CaBdf1 BD2 [8] = biological target: T1, CaBdf1 BD2; experiment: Isothermal titration calorimetry (ITC); assay type: binding; set-up: His tag with TEV site (N, cleaved yes); made in house; host or cells: E. coli BL21(DE3)
Procedure: as §3, §4
Target sequence in this assay (Q5A4W8 386-491): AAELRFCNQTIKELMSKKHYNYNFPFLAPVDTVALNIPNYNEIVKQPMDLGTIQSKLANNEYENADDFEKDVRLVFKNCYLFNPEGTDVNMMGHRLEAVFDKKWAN

human Brd4 BD1 [9] = biological target: T5, human Brd4 BD1 (Homo sapiens, UniProt O60885); experiment: Isothermal titration calorimetry (ITC); assay type: binding; set-up: human Brd4 BD1 (residues 22–204); His tag with TEV site (N, cleaved yes); made in house; host or cells: E. coli BL21(DE3)
Procedure: as §3, §4

CaBdf1 BD1 Y248F = biological target: T6, CaBdf1 BD1 Y248F (Candida albicans, UniProt Q5A4W8, Y248F); experiment: Histone peptide microarray binding, YF mutant; set-up: species or system C. albicans; conditions: CaBdf1 BD1 YF mutant; for Peptide array signal, raw data, Left: left replicate array; for Peptide array signal, raw data, Right: right replicate array
T6 construct: made in house; host or cells: E. coli BL21(DE3), inferred from the wild-type GST construct
Procedure: as §1, with “duplicate. Images were acquired on a Bio-Rad ChemiDoc XRS Imaging machine and data were quantified using the array analyser software provided by Active Motif.” for “duplicate.”

CaBdf1 BD2 Y425F = biological target: T7, CaBdf1 BD2 Y425F (Candida albicans, UniProt Q5A4W8, Y425F); experiment: Histone peptide microarray binding, YF mutant; set-up: species or system C. albicans; conditions: CaBdf1 BD2 YF mutant; for Peptide array signal, raw data, Left: left replicate array; for Peptide array signal, raw data, Right: right replicate array
T7 construct: made in house; host or cells: E. coli BL21(DE3), inferred from the wild-type GST construct
Procedure: as §1, with “duplicate. Images were acquired on a Bio-Rad ChemiDoc XRS Imaging machine and data were quantified using the array analyser software provided by Active Motif.” for “duplicate.”

human Brd4 BD1 [10] = biological target: T5, human Brd4 BD1; experiment: BROMOscan profiling (DiscoverX); assay type: binding; set-up: purchased DiscoverX; host or cells: T7 phage grown in an E. coli host derived from BL21; conditions: 10 μM; as read by reviewer from the BROMOscan data
Procedure: as §2

human Brd4 BD1 [11] = biological target: T5, human Brd4 BD1; experiment: HTRF assay, inhibition of BD binding to H4ac4 peptide; set-up: human Brd4 BD1 (residues 22–204); His tag with TEV site (N, cleaved yes); made in house; host or cells: E. coli BL21(DE3)
CaBdf1 BD1 [12] = biological target: T3, CaBdf1 BD1; experiment: as above; set-up: species or system C. albicans; conditions: for IC50: H4ac4 peptide, read-out: IC50
human Brd4 BD2 = biological target: T8, human Brd4 BD2 (Homo sapiens, UniProt O60885); experiment: as above
T8 construct: GST-tagged human Brd4 BD2 (residues 349–460) was purchased from Reaction Biology Corp; purchased Reaction Biology Corp

T4 sequence (P51532 1453-1564 limits assumed): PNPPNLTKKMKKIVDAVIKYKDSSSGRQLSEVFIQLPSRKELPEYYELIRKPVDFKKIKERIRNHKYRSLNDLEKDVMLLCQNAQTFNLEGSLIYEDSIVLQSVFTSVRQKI
T6 sequence (Q5A4W8 193-327 Y248F): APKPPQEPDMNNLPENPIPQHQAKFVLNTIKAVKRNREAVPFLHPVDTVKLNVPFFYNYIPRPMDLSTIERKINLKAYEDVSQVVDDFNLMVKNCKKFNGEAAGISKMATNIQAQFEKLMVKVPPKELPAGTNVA
T3 sequence (Q5A4W8 193-327): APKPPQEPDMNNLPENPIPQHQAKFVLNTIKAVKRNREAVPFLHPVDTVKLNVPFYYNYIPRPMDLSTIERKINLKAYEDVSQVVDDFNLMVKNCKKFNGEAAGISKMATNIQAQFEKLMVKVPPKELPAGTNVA
T2 sequence (P51531 1378-1506 limits assumed): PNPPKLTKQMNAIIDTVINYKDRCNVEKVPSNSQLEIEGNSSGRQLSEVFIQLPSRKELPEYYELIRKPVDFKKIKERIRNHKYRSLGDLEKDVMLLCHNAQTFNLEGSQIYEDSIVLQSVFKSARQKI
T7 sequence (Q5A4W8 361-501 Y425F): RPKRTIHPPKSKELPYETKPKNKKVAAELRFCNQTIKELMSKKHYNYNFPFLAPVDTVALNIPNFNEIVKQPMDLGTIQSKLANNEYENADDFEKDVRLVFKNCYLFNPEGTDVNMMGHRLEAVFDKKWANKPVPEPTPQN

Compound	Peptide array signal, Normalized (0 to 100%), Average (CaBdf1 BD2 [1])	Peptide array signal, raw data, Left (CaBdf1 BD2 [1])	Peptide array signal, raw data, Rigt (CaBdf1 BD2 [1])	activity against human BDs in BROMOscan (in words) [2]	Peptide array signal, Normalized (0 to 100%), Average (CaBdf1 BD1 [5])	Peptide array signal, raw data, Left (CaBdf1 BD1 [5])	Peptide array signal, raw data, Rigt (CaBdf1 BD1 [5])	N (stoichiometry) (CaBdf1 BD1 [6]; ITC, 25 °C)	TΔS (CaBdf1 BD1 [6]; ITC, 25 °C)	ΔH (CaBdf1 BD1 [6]; ITC, 25 °C)	binding to SMARCA2 BD (in words) (SMARCA2 BD [7])	binding to SMARCA4 BD (in words) (SMARCA4 BD)	antifungal activity against mutant strains in which either BD1 or BD2 was inactivated (in words) (C. albicans)	Peptide array signal, raw data, Left (CaBdf1 BD1 Y248F)	Peptide array signal, raw data, Right (CaBdf1 BD1 Y248F)	Peptide array signal, raw data, Left (CaBdf1 BD2 Y425F)	Peptide array signal, raw data, Right (CaBdf1 BD2 Y425F)	IC50 (CaBdf1 BD1 [12]; HTRF)	also measured
O=C1c2ccccc2Sc2cc(-c3noc(-c4cnccn4)n3)ccc2N1C1CC1 [Compound 1]	0.259%	0.004804	0.01167	no significant inhibition was detected; also recorded: no significant activity; also recorded: do not significantly inhibit	0%	0	0.003741	0.91 ± 0.06	4.885 kcal/mol	-2.34 ± 0.621 kcal/mol	no detectable binding; also recorded: did not detectably bind	no detectable binding; also recorded: did not detectably bind	little antifungal activity; also recorded: did not significantly inhibit growth	0	0.001715	0	0.001456		inhibition at 10 µM (SMARCA2 BD [3]): ~65%; inhibition of CaBdf1 BD2 (in words) (CaBdf1 BD2 [4]; HTRF): no or only modest binding and inhibition; binding to CaBdf1 BD2 (in words) (CaBdf1 BD2 [8]; ITC): no or only modest binding and inhibition; binding to Brd4 BD1 (in words) (human Brd4 BD1 [9]; ITC): no or only modest binding and inhibition; inhibition in BROMOscan (in words) (human Brd4 BD1 [10]): hardly inhibits; IC50 (human Brd4 BD1 [11]; HTRF, H4ac4 peptide): ~40 µM; inhibition of Brd4 BD1 (in words) (human Brd4 BD1 [11]; HTRF, highest concentration 20 μM): no or only modest binding and inhibition
Cc1ccc(Nc2c(-c3ccc(O)cc3)nc3c(C)cccn23)cc1 [Compound 2]	0.37%	0.005491	0.01304	no significant inhibition was detected; also recorded: do not significantly inhibit	0.0725%	0.0005345	0.004276				no detectable binding; also recorded: no significant inhibition	no detectable binding; also recorded: no significant inhibition	little antifungal activity	0.003429	0.002743	0.0004854	0.002427	≥ 40 µM	IC50 (CaBdf1 BD2 [4]): 1.1 µM; Kd (CaBdf1 BD2 [8]): 2.1 µM; N (stoichiometry) (CaBdf1 BD2 [8]; ITC, 25 °C): 1.21 ± 0.11; TΔS (CaBdf1 BD2 [8]; ITC, 25 °C): 2.01 kcal/mol; ΔG (CaBdf1 BD2 [8]; ITC, 25 °C): -7.741 kcal/mol; ΔH (CaBdf1 BD2 [8]; ITC, 25 °C): -5.74 ± 0.96 kcal/mol; IC50 (human Brd4 BD2): ≥ 40 µM
CN1C(=O)c2ccccc2Sc2cc(NC(=O)C3CCCO3)ccc21 (stereo not shown) [Compound 3]	0.296%	0.005491	0.01167		0.0363%	0.001069	0.003207	1.05 ± 0.03	0.44 kcal/mol	-6.81 ± 0.12 kcal/mol				0.004458	0.001715	0.001942	0.002427	1.7 ± 0.6 µM	inhibition of CaBdf1 BD1 (in words) (CaBdf1 BD1 [12]; HTRF): low-micromolar affinity; IC50 for Brd4 BD1 relative to IC50 for CaBdf1 BD1 (CaBdf1 BD1 [12]; HTRF IC50 ratio): 7 fold; Kd (CaBdf1 BD1 [6]): 4.8 ± 0.2 µM; ΔG (CaBdf1 BD1 [6]; ITC, 25 °C): -7.251 kcal/mol; EC50 (C. albicans; Candida albicans, read-out: cellular EC50): 35 ± 7 µM; growth of strains expressing WT Bdf1 or Bdf1 inactivated in BD1 (functional BD2) (in words) (C. albicans; liquid culture, Met/Cys or Dox): little effect; also recorded: insensitive; growth of strains inactivated in BD2 (bdf1-bd2Δ, bdf1-Y425F) (in words) (C. albicans; liquid culture, Met/Cys or Dox): significantly inhibited; also recorded: compromises the in vitro growth; also recorded: sensitive; Kd (human Brd4 BD1 [9]): 13.4 ± 1.7 µM; N (stoichiometry) (human Brd4 BD1 [9]; ITC, 25 °C): 0.92 ± 0.03; TΔS (human Brd4 BD1 [9]; ITC, 25 °C): 3.107 kcal/mol; ΔG (human Brd4 BD1 [9]; ITC, 25 °C): -6.644 kcal/mol; ΔH (human Brd4 BD1 [9]; ITC, 25 °C): -3.54 ± 0.454 kcal/mol; IC50 (human Brd4 BD1 [11]): 12.5 ± 0.8 µM

— publication PMC5454392, “Selective BET bromodomain inhibition as an antifungal therapeutic strategy” (Nature Communications, 2017)
